Source: patent publication US8138196B2, “Antifungal wallboards and building materials and methods for the production thereof” (Syngenta Crop Protection, Inc., priority 2005, dated 2012)

How the values were obtained:
Assay type in all cases: cell-based
[1] = system: Alternaria tenuissima (DSM 63360); experiment: Example 4 liquid culture assay on 24 and 48 well plates, 3 way mixtures; conditions: A. tenuissima
Excerpt: (§1) For test 006-2005: Alternaria tenuissima (DSM 63360), Penicillium chrysogenum (DSM 895), Cladosporium cladosporoides (DSM62121), Aspergillus niger (DSM 63263), Aspergillus versicolor (DSM 1943) and Aureobasidium pullulans (ATCC 15233) were separately cultivated on PDA media to […] sporulation. Spore suspensions were produced for each fungus. Spore concentrations of approx. 100,000 spores/ml were used.
(§2) […] Spore suspensions were produced for each fungus. Spore concentrations of approx. 100,000 spores/ml were used.
(§3) Test method used: liquid culture assay on 24 and 48 well plates respectively.
(§4) For testing of the 3 way mixtures each of the formulated fungicide (100 ul) was filled into the 24 and 48 well plates respectively. Afterwards 700 ul of 0.3% AE media was added to the plate. The spore suspension of the specific fungi was added to this media in advance containing approx. 100,000 spores/ml. For testing the solo compounds the equivalent of distilled water was added instead of the formulated fungicide volume of the mixing partners. The plates were then sealed and incubated at 24° C.
(§5) Dependent on the growth properties of each organisms, the evaluation was done after 3 to 6 days, when the surface of the check well was covered with mycelium. The evaluation was performed by assessing the growth of the fungi related to the check growth. The results are expressed as % activity relative to the check (values of 0-100% growth). Afterwards the results were converted in % growth inhibition.
(§6) For the mixtures of different fungicides the synergism was calculated based on the Colby equation, which is described above.

[2] = system: Stachybotrys chartarum (DSM 2144); experiment: as above; conditions: test 015-2005, S. chartarum
Method: as §2, §3, §4, §5, §6

[3] = system: Stachybotrys chartarum (DSM2144); experiment: Example 3 liquid culture assay on 24 well plates, solo and 2-way mixtures; conditions: test 006-2005; rate (AZO) 0.8 mg ai/l
Excerpt: as §1, with “Alternaria” for “For test 006-2005: Alternaria”, “Stachybotrys chartarum (DSM2144),” for “Cladosporium cladosporoides (DSM62121),”, “fungi.” for “fungus.”, “100.000” for “100,000”
(§7) Test method used: liquid culture assay on 24 well plates.
(§8) For solo (i.e. single) ai testing the formulated fungicide (100 ul) was filled into the 24 well plates and 100 ul distilled water was added. Afterwards 800 ul of 0.3% AE media was added to the plate. The spore suspension of the specific fungi was added to this media in advance containing approx. 100,000 spores/ml. The 24 well plates were sealed and incubated at 24° C.
as §5, with “in % O growth inhibition.” for “in % growth inhibition.”
(§9) For synergism testing of the 2-way mixtures 100 ul of each fungicide were filled into 24 well plates and 800 ul of 0.3% AE media containing the spore suspension was added. Different ratios of the 2 fungicide rates were tested at the same time.
(§10) For the mixtures of different fungicides the synergism was calculated based on the Colby equation, which is described below: […]
(§11) The fungicidal action to be expected, We, for a given combination of two fungicides can be calculated as follows (see COLBY, S. R. “Calculating synergistic and antagonistic response of herbicide combinations”. Weeds 15, pages 20-22; 1967): We=X+[Y×(100−X)/100] wherein: • X=% activity in the case of treatment with the compound of formula I at rate x, in comparison with untreated control (=0%). • Y=% activity in the case of treatment with a compound of formula II at rate y, in comparison with untreated control. • We=expected activity (% activity in comparison with untreated control) after treatment with the compound of formula I and a compound of formula II at a rate of x+y kg of active ingredient.
(§12) If the activity actually observed is greater than the expected value We (factor observed activity/expected activity >1.2), there is a synergistic effect.

[4] = system: Aspergillus versicolor (DSM 1943); experiment: as above; conditions: test 006-2005
Excerpt: as §1, with “Alternaria” for “For test 006-2005: Alternaria”, “Stachybotrys chartarum (DSM2144),” for “Cladosporium cladosporoides (DSM62121),”, “fungi.” for “fungus.”, “100.000” for “100,000”
as §7, §8
as §5, with “in % O growth inhibition.” for “in % growth inhibition.”
as §9, §10, §11, §12

[5] = system: Aureobasidium pullulans (ATCC 15233); experiment: as above
Excerpt: as §1, with “Alternaria” for “For test 006-2005: Alternaria”, “Stachybotrys chartarum (DSM2144),” for “Cladosporium cladosporoides (DSM62121),”, “fungi.” for “fungus.”, “100.000” for “100,000”
as §7, §8
as §5, with “in % O growth inhibition.” for “in % growth inhibition.”
as §9, §10, §11, §12

[6] = system: Aspergillus niger (DSM 63263); experiment: as above; conditions: test 006-2005; rate (AZO) 0.05 mg ai/l
Excerpt: as §1, with “Alternaria” for “For test 006-2005: Alternaria”, “Stachybotrys chartarum (DSM2144),” for “Cladosporium cladosporoides (DSM62121),”, “fungi.” for “fungus.”, “100.000” for “100,000”
as §7, §8
as §5, with “in % O growth inhibition.” for “in % growth inhibition.”
as §9, §10, §11, §12

[7] = system: Penicillium chrysogenum (DSM 895); experiment: as above; conditions: test 006-2005
Excerpt: as §1, with “Alternaria” for “For test 006-2005: Alternaria”, “Stachybotrys chartarum (DSM2144),” for “Cladosporium cladosporoides (DSM62121),”, “fungi.” for “fungus.”, “100.000” for “100,000”
as §7, §8
as §5, with “in % O growth inhibition.” for “in % growth inhibition.”
as §9, §10, §11, §12

[8] = system: Alternaria tenuissima (DSM 63360); experiment: as above
Excerpt: as §1, with “Alternaria” for “For test 006-2005: Alternaria”, “Stachybotrys chartarum (DSM2144),” for “Cladosporium cladosporoides (DSM62121),”, “fungi.” for “fungus.”, “100.000” for “100,000”
as §7, §8
as §5, with “in % O growth inhibition.” for “in % growth inhibition.”
as §9, §10, §11, §12

[9] = test 006-2005, rate (AZO) 0.05 mg ai/l
[10] = test 006-2005, rate (AZO) 0.2 mg ai/l
[11] = test 006-2005, rate (AZO) 0.8 mg ai/l

CO/C=C(/C(=O)OC)c1ccccc1Oc1cc(Oc2ccccc2C#N)ncn1 [Azoxystrobin]
inh % (AZO alone) ([1]; test 006-2005, AZO 0.05 mg ai/l): 10%
inh % (AZO alone) ([1]; test 006-2005, AZO 0.2 mg ai/l): 10%
inh % (AZO alone) ([1]; test 006-2005, AZO 0.8 mg ai/l): 10%
inh % (AZO alone) ([1]; test 006-2005, AZO 1.6 mg ai/l): 10%
inh % (AZO alone) ([1]; test 006-2005, AZO 3.12 mg ai/l): 10%
inh % (AZO alone) ([1]; test 006-2005, AZO 12.5 mg ai/l): 10%
inh % (AZO alone) ([1]; test 006-2005, AZO 50 mg ai/l): 10%
inh % (AZO alone) ([1]; test 006-2005, AZO 100 mg ai/l): 10%
inh % (AZO alone) ([1]; test 015-2005, AZO 0.05 mg ai/l): 10%
inh % (AZO alone) ([1]; test 015-2005, AZO 0.2 mg ai/l): 10%
inh % (AZO alone) ([2]; AZO 0.8 mg ai/l): 10%
inh % (AZO alone) ([2]; AZO 1.6 mg ai/l): 10%
inh % (AZO alone) ([2]; AZO 3.1 mg ai/l): 30%
inh % (AZO alone) [3]: 10%
inh % (AZO alone) ([4]; rate (AZO) 0.8 mg ai/l): 30%
inh % (AZO alone) ([4]; rate (AZO) 1.6 mg ai/l): 30%
inh % (AZO alone) [5, 9]: 0%
inh % (AZO alone) [5, 10]: 10%
inh % (AZO alone) [5, 11]: 10%
inh % (AZO alone) ([5]; test 006-2005, rate (AZO) 1.6 mg ai/l): 10%
inh % (AZO alone) ([5]; test 006-2005, rate (AZO) 3.12 mg ai/l): 10%
inh % (AZO alone) ([5]; test 006-2005, rate (AZO) 12.5 mg ai/l): 10%
inh % (AZO alone) ([5]; test 015-2005, rate (AZO) 12.5 mg ai/l): 0%
inh % (AZO alone) ([5]; test 015-2005, rate (AZO) 25 mg ai/l): 0%
inh % (AZO alone) ([5]; test 015-2005, rate (AZO) 50 mg ai/l): 0%
inh % (AZO alone) ([5]; test 015-2005, rate (AZO) 100 mg ai/l): 0%
inh % (AZO alone) [6]: 10%
inh % (AZO alone) ([7]; rate (AZO) 0.05 mg ai/l): 10%
inh % (AZO alone) ([7]; rate (AZO) 0.2 mg ai/l): 0%
inh % (AZO alone) ([7]; rate (AZO) 0.8 mg ai/l): 10%
inh % (AZO alone) ([7]; rate (AZO) 1.6 mg ai/l): 10%
inh % (AZO alone) ([7]; rate (AZO) 3.12 mg ai/l): 10%
inh % (AZO alone) ([7]; rate (AZO) 12.5 mg ai/l): 10%
inh % (AZO alone) ([7]; rate (AZO) 50 mg ai/l): 10%
inh % (AZO alone) ([7]; rate (AZO) 100 mg ai/l): 10%
inh % (AZO alone) [8, 9]: 10%
inh % (AZO alone) [8, 10]: 10%
inh % (AZO alone) [8, 11]: 10%
inh % (AZO alone) ([8]; test 006-2005, rate (AZO) 100 mg ai/l): 30%
inh % (AZO alone) ([8]; test 015-2005, rate (AZO) 0.4 mg ai/l): 10%
inh % (AZO alone) ([8]; test 015-2005, rate (AZO) 0.8 mg ai/l): 10%
inh % (AZO alone) ([8]; test 015-2005, rate (AZO) 1.6 mg ai/l): 10%
inh % (AZO alone) ([8]; test 015-2005, rate (AZO) 3.1 mg ai/l): 10%
inh % (AZO alone) ([8]; test 015-2005, rate (AZO) 6.25 mg ai/l): 10%
